Measurements published in patent publication US5726188A, “Optically active imidazolidinone derivatives and processes for preparing them” (Kyorin Pharmaceutical Co., Ltd., priority 1993, dated 1998).

Tests used:
[1] = target: T1, M1 type muscarinic cholinergic receptor (Rattus norvegicus, UniProt P08482); assay: Radioligand binding to M1 type muscarinic cholinergic receptor ([^3 H]-pirenzepine); conditions: for IC50: rat brain (except cerebellum and brain stem) crude synaptic membrane, [^3 H]-PZ 1 nM, 60 minutes, 25 °C
T1 construct: crude synaptic membrane specimen prepared from all brains (except cerebellum and brain stem) of rat; from tissue; host or cells: rat brain without cerebellum and brain stem, crude synaptic membranes
T1 sequence (P08482 1-460): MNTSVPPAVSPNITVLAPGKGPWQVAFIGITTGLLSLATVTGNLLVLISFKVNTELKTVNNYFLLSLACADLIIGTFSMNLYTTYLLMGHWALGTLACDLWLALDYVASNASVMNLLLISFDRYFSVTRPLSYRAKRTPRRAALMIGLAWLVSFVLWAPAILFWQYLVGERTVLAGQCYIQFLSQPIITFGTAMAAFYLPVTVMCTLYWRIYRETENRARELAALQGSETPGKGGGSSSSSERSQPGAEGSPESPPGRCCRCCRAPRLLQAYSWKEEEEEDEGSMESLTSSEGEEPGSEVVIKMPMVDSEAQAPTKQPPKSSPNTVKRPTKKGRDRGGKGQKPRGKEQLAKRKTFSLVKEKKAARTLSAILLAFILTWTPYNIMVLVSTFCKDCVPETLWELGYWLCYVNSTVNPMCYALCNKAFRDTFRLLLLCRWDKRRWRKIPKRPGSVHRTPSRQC
Description: 1) Radioligand binding experiment to M1 type muscarinic cholinergic receptor
Method: To a crude synaptic membrane specimen prepared from all brains (except cerebellum and brain stem) of rat, [^3 H]-pirenzepine ([^3 H]-PZ, final oncentration: 1 nM) and testing compound were added and the mixture was incubated for 60 minutes at 25 ° C. After stopped the reaction by high-speed suction filtration, the radioactivity on filter was measured with liquid scintillation counter. The specific binding level of [^3 H]-pirenzepine was determined by subtracting the nonspecific binding level in the presence of atropine (1 μM) from total binding level. Putting the [^3 H]-pirenzepine binding in the absence of testing compound on 100, the concentration of compound to decrease by 50 % (IC50 value) was made an index of the binding activity of compound to M1 muscarinic receptor (refer to: J. A. D. M. Toner et al, Life Science, 1987, 40, 1981-1987).

[2] = target: T2, M2 type muscarinic cholinergic receptor (Rattus norvegicus, UniProt P10980); assay: Radioligand binding to M2 type muscarinic cholinergic receptor ([^3 H]-quinuclidyl benzoate); conditions: rat brain stem crude synaptic membrane, [^3 H]-QNB 0.1 nM
T2 construct: crude synaptic membrane specimen was prepared from the brain stem (medulla oblongata-pons) of rat; from tissue; host or cells: rat brain stem (medulla oblongata-pons), crude synaptic membranes
T2 sequence (P10980 1-466): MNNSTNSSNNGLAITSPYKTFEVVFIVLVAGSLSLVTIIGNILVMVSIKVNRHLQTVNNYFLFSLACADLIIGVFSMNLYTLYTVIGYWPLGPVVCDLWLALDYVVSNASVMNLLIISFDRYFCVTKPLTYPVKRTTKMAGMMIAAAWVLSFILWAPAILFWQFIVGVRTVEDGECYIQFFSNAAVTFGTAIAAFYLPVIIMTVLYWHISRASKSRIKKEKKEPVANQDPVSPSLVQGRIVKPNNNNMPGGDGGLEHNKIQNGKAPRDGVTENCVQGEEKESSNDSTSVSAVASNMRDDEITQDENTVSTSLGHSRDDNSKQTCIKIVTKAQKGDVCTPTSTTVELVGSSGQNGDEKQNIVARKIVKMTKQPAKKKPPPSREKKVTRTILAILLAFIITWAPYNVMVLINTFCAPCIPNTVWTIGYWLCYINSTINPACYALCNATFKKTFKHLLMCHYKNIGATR

[3] = tested on: pirenzepine-induced amnesia; assay: Pirenzepine-induced amnesia, step-through type passive avoidance; format: in vivo, Std:ddY strain male mice; conditions: oral; for Reaction latency Mean ± S.E.: 30 or 60 minutes before acquisition trial, pirenzepine-treated mice; for Improvement rate: pirenzepine-induced amnesia
Source text: Testing on the pirenzepine-induced amnesia
For the experiment animals, Std:ddY strain male mice with body weight of 24 to 34 g (age in week: 5-6) (Nippon SLC) were used. For the device, a step-through type passive avoidance apparatus (made by Ohara Medical Co., Ltd.) consisting of two […] and dark rooms was used. In the acquisition trial, mouse was placed in the light room and, 10 seconds later, the partitive guillotine door was opened. As soon as the mouse moved into the dark room, the guillotine door was closed and electric shock of 41 to 45 V was given for 1 second through the metal grid bars of the floor. The retention trial was conducted 24 hours later since then. […] The induction of amnesia was performed by fixing a mouse at prone position without anesthetization at 20 minutes before learning acquisition trial and injecting pirenzepine (10 μg/2 μl/mouse bilaterally into cerebral ventricles using a microsyringe. Moreover, a group not to administered with pirenzepine before acquisition trial (non-amnesia comparison group) was also provided. The mice were made to be 12 to 21 animals per group and the testing compound was administered orally at 30 or 60 minutes before acquisition trial. The improvement rate was calculate according to following equation and the results are shown in Table 5 (refer to: M. P. Callfield et at, J. Pharm. Pharmacol. 1983, 35, 131-132). [formula]
The extension of the reaction latency with compound therefore means the improved amnesia.

[4] = tested on: Std:ddY strain male mice; assay: In vivo toxicity test, oral administration; conditions: for common symptoms and death / Convulsion (animals affected) / Death (animals) / dose at which convulsion was observed / dose at which death was observed: 3 days
Description: For the experiment animals, 4 animals per group of Std:ddY strain male mice with body weightOf 26 to 30 g (age in week: 5) (Nippon SLC) were used. The testing compound was suspended into 5 % solution of arabic gum and administered orally. The common symptoms and death caused with compound were recorded for 3 days after administration.

[5] = tested on: M1 and M2 muscarinic receptors; assay: Selectivity to M1 receptor (ratio of IC50 values from the M1 and M2 binding experiments); set-up: species or system rat
Description: 3) Selectivity to M1 receptor
This was determined from the ratio of IC50 values of compound obtained from the binding experiments of M1 and M2 muscarinic receptors. [formula]

Compound	IC50 [1] [µM]	IC50 [2] [µM]	Reaction latency Mean ± S.E. ([3]; 3 mg/kg) [s]	Improvement rate ([3]; 3 mg/kg) [%]	Reaction latency Mean ± S.E. ([3]; 10 mg/kg) [s]	Improvement rate ([3]; 10 mg/kg) [%]	common symptoms (in words) [4]	common symptoms and death ([4]; 300 mg/kg)	dose at which convulsion was observed [4] [mg/kg]	dose at which death was observed [4] [mg/kg]	Reaction latency Mean ± S.E. ([3]; 30 mg/kg) [s]	Improvement rate ([3]; 30 mg/kg) [%]	also measured
O=C1N(c2ccc(F)cc2)CCN1C1CCCN(Cc2ccccc2)C1 (racemic) [Referential example 8, (±)-1-(4-fluorophenyl)-3-[3-(1-phenylmethyl)piperidyl]-2-imidazolidinone]	0.08	1.09	55.1 ± 20.0	-20.7	153.7 ± 27.6	33.2	convulsive actions were seen	None	600	1200			Convulsion (animals affected) ([4]; 600 mg/kg): 3/4; Death (animals) ([4]; 1200 mg/kg): 4/4
O=C1N(c2ccc(F)cc2)CCN1[C@@H]1CCCN(Cc2ccccc2)C1 [Example 1, (R)-1-(4-florophenyl)-3-[3-(1-phenylmethyl)piperidyl]-2-imidazolidinone]	0.03	0.5	91.5 ± 21.4	34.3	133.0 ± 29.3	77.9		None			166.9 ± 40.2	113.6	affinity to the central M1 muscarinic receptor (in words) [1]: patent affinity to the central M1 muscarinic receptor; in vitro muscarine (M1) activity / affinity relative to S form (Referential example 9) ([1]; compared with S isomer): about 120 times; in vitro muscarine (M1) activity / affinity relative to racemic form (Referential example 8) ([1]; compared with racemic form): about 3 times; selectivity to M1 receptor (in words) ([5]; M1 versus M2 receptor): far higher selectivity to M1 receptor than to M2 receptor; IC50 (M2)/IC50 (M1) ([5]; ratio of IC50 values, selectivity to M1 receptor): 16.7; improvement effect on the amnesia / disturbance of learning (in words) ([3]; listed as R form): could be recognized only for R form with significant difference; improvement effect on the amnesia / disturbance of learning (in words) ([3]; listed as R isomer): very excellent improvement effect on the amnesia; common symptoms and death ([4]; 600 mg/kg): None; common symptoms and death ([4]; 1200 mg/kg): None; common symptoms and death ([4]; 1200 mg/kg, listed as R form): problems did not arise at any rate; common symptoms and death ([4]; 1200 mg/kg, listed as compound of the invention): such symptom was not caused even at 1200 mg/kg
O=C1N(c2ccc(F)cc2)CCN1[C@H]1CCCN(Cc2ccccc2)C1 [Referential example 9, (S)-1-(4-fluorophenyl)-3-[3-(1-phenylmethyl)piperidyl]-2-imidazolidinone]	3.7	> 10	63.3 ± 32.1	-23.5	61.5 ± 26.5	-25.0	convulsive actions were seen		≥ 300	≥ 300	113.2 ± 36.2	18.1	Convulsion (animals affected) ([4]; 300 mg/kg): 2/4; Death (animals) ([4]; 300 mg/kg): 1/4; Death (animals) ([4]; 600 mg/kg): 4/4
